Results on one molecule are retold here after patent publication US20260000658A1, “METHODS FOR THE TREATMENT OF PROLIFERATIVE GLOMERULONEPHRITIS” (INSTITUT NATIONAL DE LA SANTÉ ET DE LA RECHERCHE MÉDICALE, priority 2022, published 2026).

Holding throughout (type): in vivo, mouse
In data set [1] the test system is uninephrectomized PIK3CA^Pod-HO mice. The data set is described as follows: Uninephrectomized PIK3CA^Pod-HO mice, vehicle or alpelisib. The source says:
(§1) A. Urinary albumin to creatinine ratio of PIK3CAWT and PIK3CAPod-HO mice 2 weeks following uninephrectomy and treated either with vehicle or alpelisib (n=8-9 mice per group). B. Serum creatinine levels, C. blood urea nitrogen (BUN) levels of PIK3CAWT and PIK3CAPod-HO mice 2 weeks following uninephrectomy and treated either with vehicle or alpelisib (n=8-9 mice per group). D. Glomerular lesion score of PIK3CAWT and PIK3CAPod-HO mice 2 weeks following uninephrectomy and treated either with vehicle or alpelisib (n=8-9 mice per group). E. Trajectory of albumin to creatinine ratio in the urine of PIK3CAPod-HO mice following uninephrectomy and treated with either vehicle or alpelisib (n=8-9 mice per group).
(§2) For the uninephrectomy experiments, the right kidneys were removed under anesthesia. For the medical treatment of mice, 50 mg kg −1 alpelisib (MedChem Tronica) in 1% carboxymethylcellulose (Sigma Aldrich)+0.5% Tween (Sigma Aldrich) or vehicle (1% carboxymethylcellulose+0.5% Tween) was administered by oral gavage daily for the indicated periods of time. Blood and urines were obtained at the indicated times. At euthanasia, blood, urines, kidneys were harvested. In some experiments, spleens, hearts, and bone marrow (BM) in femurs and tibias were harvested as well. Tissues were fixed in 4% paraformaldehyde and paraffin embedded for immunohistochemical analysis, snap-frozen in Optimal Cutting Temperature (OCT), or stored at −80° C. for mRNA or protein analysis.
(§3) Mouse blood counts were analyzed using a hematology analyzer (ProCyte Dx; IDEXX Laboratories). Mouse serum creatinine, blood urea nitrogen, urinary albumin, and urinary creatinine were evaluated using an AU5800 (Beckman Coulter) autoanalyzer. Serum anti-dsDNA measurement was performed according to the manufacturer's instruction using mouse anti-dsDNA ELISA kit (LBIS). The absorbance was measured using Ininite M Nano (TECAN).
(§4) 4-μm kidney sections were stained with periodic acid-Schiff (PAS), Masson's Trichrome (MT), Periodic acid metenamine silver (PAM) or Hematoxylin and Eosin (HE) staining for histological analysis. The degree of glomerular lesions was evaluated using the following scoring system: 0=no lesion, 1=affecting up to 25% of the glomerulus, 2=affecting 25-50% of the glomerulus, 3=affecting 50-75% of the glomerulus, and 4=affecting 75-100%. At least 50 glomeruli per sample were measured for each analysis. An indirect immunoperoxidase method was used for immunohistochemistry. Briefly, after deparaffinization, antigen retrieval was performed with citrate buffer (pH6) or Tris-EDTA buffer (pH9 or pH6) using microwave or high temperature (95° C.). Endogenous peroxidase activity was quenched using 3% hydrogen peroxide; nonspecific protein binding was blocked using 2.5% normal horse serum (Vector Laboratories), and endogenous biotin activity was quenched using the Avidin/Biotin Blocking Kit (Vector Laboratories). When using mouse primary antibodies on mouse tissue, Klear mouse blocking reagent (Diagomics) was used to block endogenous mouse immunoglobulins. After blocking, the tissue sections were incubated with the primary antibodies overnight at 4° C. The following primary antibodies were used: rabbit anti-Ki67 antibody (SP6; Thermo Fisher Scientific), rabbit anti-P-S6RP antibody (D68F8; Cell Signaling Technology), mouse anti-P-AKT (Ser473) antibody (587F11; Cell Signaling Technology), rabbit anti-P-AKT (Thr308) antibody (C31E5E; Cell Signaling Technology), mouse anti-S6RP antibody (54E2; Cell Signaling Technology), chicken anti-GFP antibody (Abcam), guinea pig anti-Nephrin antibody (GP-N2; Progen), rabbit anti-Podocin antibody (P0372; Sigma Aldrich), mouse anti-WTI antibody (6F-H2; DAKO). The corresponding secondary antibodies including anti-mouse IgG, anti-rabbit IgG, anti-guinea pig IgG, biotinylated anti-rabbit IgG (Vector Laboratories), and biotinylated anti-mouse IgG (Vector Laboratories) were applied. […]

The test system of a further data set is uninephrectomized mice. The data set is described as above. As to conditions: PIK3CA^WT mice, 2 weeks treatment.
Description: as §1, §2, §3, §4

In the next data set the test system is Tg26^HE mice. The data set is described as follows: Tg26^HE mice (collapsing glomerulopathy model), vehicle or alpelisib for 8 weeks. The settings on record: 8 weeks treatment. As to the method:
as §2, §3
as §4, with “applied. For Avidin/Biotin detection, an R.T.U. Vectastain Kit (Vector Laboratories) or streptavidin (Thermo Fisher Scientific) was used. The immunoreactive antigens sites were detected with hydrogen peroxide and diaminobenzidine. For frozen immunofluorescent staining, frozen tissue sections (4 μm) were briefly air dried and fixed in 50% methanol/50% acetone. The sections were then blocked with 2.5% normal horse serum and incubated with primary antibodies: guinea pig anti-Nephrin antibody (GP-N2; Progen) overnight at 4° C. The sections were then incubated at room temperature for 40 min with secondary antibodies: fluorescein isothiocyanate-conjugated (FITC) anti-mouse IgG (Sigma Aldrich), FITC anti-mouse IgM (BD Biosciences), or FITC anti-mouse C3 antibody (abcam).” for “applied.”

Setting [2] is: 2 weeks after uninephrectomy, vs vehicle.

On to `Cc1nc(NC(=O)N2CCC[C@H]2C(N)=O)sc1-c1ccnc(C(C)(C)C(F)(F)F)c1` [alpelisib, Alpelisib], for which, in data set [1] (setting [2]), the “expression of podocytes markers” value is recorded as “higher expression of podocytes markers”; the glomerular lesion score entry is on record as “preserved glomerular”; the “kidney function (serum creatinine, BUN)” value is “better kidney function”; the “podocyte AKT/mTOR pathway activation” value was “decreased podocyte AKT/mTOR pathway activation”. Moreover, the tubular dilation entry in data set [1] (setting [2]) is “fewer tubular dilation”. The “proteinuria (urinary albumin to creatinine ratio)” value in data set [1] (nephrectomy at 8 weeks old, 2 weeks treatment) is “significantly decreased”. Besides, the “kidney lesions (title of FIG. 2)” value in data set [1] (uninephrectomized PIK3CAPod-HO mice) was “improves kidney lesions”. For the same molecule, the “phenotype of uninephrectomized PIK3CA^WT control mice” value with uninephrectomized mice is reported as “no particular phenotype, without proteinuria or kidney dysfunction”. Also, in the data set with Tg26^HE mice (4 weeks old, vs vehicle), the albuminuria result is recorded as “lower albuminuria”. Moreover, in the data set on Tg26^HE mice, the AKT/mTOR pathway result is reported as “profound AKT/mTOR pathway inhibition” and the kidney function result was “not significantly improved”. Moreover, in the data set on Tg26^HE mice (vs vehicle), the “expression of podocyte differentiation markers” value is on record as “higher expression of podocyte differentiation markers”; the “fibrotic markers Col1a and Col3a” value is “reduced expression in fibrotic markers”; the glomerular lesions entry is “less severe glomerular lesions”; the “inflammatory marker Tnfa” value was “lower expression”. In addition, in the data set on Tg26^HE mice (vs vehicle), the kidney volume entry is “reduction in kidney volume”; the “tubular injury markers Lcn2 and KIM1” value was “lower expression of tubular injury markers”.
